Earlier results as cited in patent US20260166148A1, “MAGNETOSTRICTIVE PIEZOELECTRIC NANOASSEMBLY AS CANCER CHEMOTHERAPEUTIC” (GRANT DEMARTINO INDUSTRIES LLC, priority 2021, published 2026).

Assays:
[1] = as studied by Jun Yang et al. [18]

Row | SMILES | IC50 values in human tumor cells (human tumor cells; when activated (photosensitizer irradiated)) | apoptosis induction, killing the cells (cellular effect) (human tumor cells; when activated, human tumor cells) | water solubility [1]
1 | COc1ccc(C2=[N+]3C(=Nc4c(-c5ccccc5)c(Br)c(-c5ccc(OC)cc5)n4[B-]3(F)F)C(c3ccccc3)=C2Br)cc1 [ADPM06] | micromolar range | induces apoptosis | 
2 | CC(C)(N=NC(C)(C)C1=NCCN1)C1=NCCN1.Cl.Cl [AIPH, 2,2′-Azobis(2-(2-imidazolin-2-yl)propane) dihydrochloride] |  |  | excellent
